Experiments:
testis-derived Brdt = assay: JQ1 inhibition of Brdt binding to H4 peptides; design: species or system mouse; details: JQ1 added to extract prior to peptide pull-down; Figure 6C lower left
[1] = tested on: histone octamers / chromatin (H4K5 and H4K8); details: [14C] butyryl-CoA, in vitro; ref Chen et al., 2007; cited from earlier work

Row | Molecule | inhibition of Brdt binding to H4K5acK8bu peptide (testis-derived Brdt) | inhibition of Brdt binding to acetylated H4 peptide (testis-derived Brdt) | lysine butyrylation of core histones [1]
1 | Cc1sc2c(c1C)C(c1ccc(Cl)cc1)=N[C@@H](CC(=O)OC(C)(C)C)c1nnc(C)n1-2 [JQ1] | abolished the binding | abolished the binding | –
2 | CREB binding protein (CBP): histone acyltransferase | – | – | can catalyze lysine butyrylation
3 | p300: Flag tagged human p300 (324-2094), recombinant from baculovirus-infected insect cells | – | – | can catalyze lysine butyrylation

From publication PMC4850424 (Molecular Cell, 2016)
